Target: T1, aromatase (Rattus norvegicus, UniProt P22443)
T1 construct: ovarian microsomes are obtained from rats treated with pregnant mares serum gonadotropin; from tissue; host or cells: ovarian microsomes of rats treated with pregnant mares serum gonadotropin
T1 sequence (P22443 1-508): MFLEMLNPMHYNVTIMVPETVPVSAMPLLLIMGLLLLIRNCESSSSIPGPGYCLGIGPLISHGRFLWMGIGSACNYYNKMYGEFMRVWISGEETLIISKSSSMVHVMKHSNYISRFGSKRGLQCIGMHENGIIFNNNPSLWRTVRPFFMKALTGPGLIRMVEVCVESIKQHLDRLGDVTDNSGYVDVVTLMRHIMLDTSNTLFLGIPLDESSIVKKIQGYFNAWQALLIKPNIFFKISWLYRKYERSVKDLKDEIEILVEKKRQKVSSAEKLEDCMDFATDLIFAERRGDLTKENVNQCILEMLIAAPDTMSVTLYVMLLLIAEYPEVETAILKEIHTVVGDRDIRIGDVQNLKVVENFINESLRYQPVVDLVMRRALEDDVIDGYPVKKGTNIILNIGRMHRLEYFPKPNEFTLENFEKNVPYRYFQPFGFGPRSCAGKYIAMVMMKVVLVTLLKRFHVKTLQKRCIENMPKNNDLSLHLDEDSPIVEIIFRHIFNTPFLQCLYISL
Assay: isolated rat ovarian microsome aromatase inhibition (modified method of Brodie et al.)
Assay type: biochemical
Details: rat ovarian microsomes; substrate androstenedione 0.1 µM; [3H]-H2O release; NADPH generating system; read-out: concentration of inhibitor required to produce a 50% inhibition of enzyme activity (EC50)
Description: In this test system, ovarian microsomes are obtained from rats treated with pregnant mares serum gonadotropin. Test compounds are added to reaction vials containing […] 4-androstene-3,17-dione, 100,000 dpm 1,2[^3H]-androstenedione, the microsomes and a NADPH generating system. The concentrations of the inhibitors tested ranged between […]. […] Potency is determined based on the concentration of inhibitor in µM required to produce a 50% inhibition of enzyme activity (EC50) when the concentration of substrate (androstenedione) is 0.1 µM.

EC50: 1.1 µM
Compound: CC(=O)N1CCN(c2ccc(OCC3COC(Cn4ccnc4)(c4ccc(Cl)cc4Cl)O3)cc2)CC1 (stereo not shown) [ketoconazole, 1-acetyl-4-[4-([2-(2,4-dichlorophenyl)-2-(1H-imidazol-1-ylmethyl)-1,3-dioxolan-4-yl]methoxy)-phenyl]piperazine]

From patent EP0165781A1, “Aromatase inhibiting N-substituted imidazole derivatives” (ELI LILLY AND COMPANY, priority 1984, dated 1985)
